Usually IC50 stands for the concentration that inhibits the measured activity by half. In general, EC50 refers to the concentration that produces a half-maximal response. High values mean a need for much substance, low ones an effect from little substance.

Assay [1] in a line: Inhibitory concentration against Nicotinic acetylcholine receptor alpha-6-alpha-3-beta-2; Range is 0.7-1 nM. Set-up: species or system Homo sapiens.
Assay [2] in a line: Inhibitory concentration against Nicotinic acetylcholine receptor alpha6-beta4; Range is 0.7-1 nM. Set-up: species or system Homo sapiens.
Assay [3] concerns the target Neuronal acetylcholine receptor; alpha4/beta2 (Rattus norvegicus) (UniProt P09483+P12390). Briefly: Maximal response against rat neural Nicotinic acetylcholine receptor alpha4-beta2. The format is protein-complex assay.
For assay [4], the target named is Neuronal acetylcholine receptor subunit alpha-7 (Rattus norvegicus) (UniProt Q05941). Briefly: Maximal response against rat neural Nicotinic acetylcholine receptor alpha 7.
In assay [5] the target is Neuronal acetylcholine receptor; alpha3/beta2 (Rattus norvegicus) (UniProt P04757+P12390). Briefly: Maximal response against rat neural Nicotinic acetylcholine receptor alpha3-beta2. The assay is classed as protein-complex assay.
In assay [6] the target is Neuronal acetylcholine receptor; alpha3/beta4 (Rattus norvegicus) (UniProt P04757+P12392). Briefly: Maximal response against rat neural Nicotinic acetylcholine receptor alpha3-beta4. The assay is classed as protein-complex assay.
Assay [7] addresses T1, Neuronal acetylcholine receptor; alpha4/beta4 (Homo sapiens, UniProt P30926+P43681). Briefly: Maximal response against Nicotinic acetylcholine receptor alpha4-beta4. The assay is classed as protein-complex assay.
The target in assay [8] is T1, Neuronal acetylcholine receptor; alpha4/beta4. Briefly: Effective concentration against Nicotinic acetylcholine receptor alpha4-beta4. The format is protein-complex assay.
In assay [9] the target is T2, Neuronal acetylcholine receptor; alpha4/beta2 (Homo sapiens, UniProt P17787+P43681). Briefly: Maximal response against Nicotinic acetylcholine receptor alpha4-beta2. The format is protein-complex assay.
The target of assay [10] is T2, Neuronal acetylcholine receptor; alpha4/beta2. Briefly: Effective concentration against Nicotinic acetylcholine receptor alpha4-beta2. The assay is classed as protein-complex assay.
Assay [11] deals with T3, Neuronal acetylcholine receptor; alpha2/beta4 (Homo sapiens, UniProt P30926+Q15822). Briefly: Effective concentration against Nicotinic acetylcholine receptor alpha2-beta4. The assay is classed as protein-complex assay.
The target in assay [12] is T3, Neuronal acetylcholine receptor; alpha2/beta4. Briefly: Maximal response against Nicotinic acetylcholine receptor alpha2-beta4. The format is protein-complex assay.
For assay [13], the target named is T4, Neuronal acetylcholine receptor subunit alpha-7 (Homo sapiens, UniProt P36544). Briefly: Effective concentration against Nicotinic acetylcholine receptor alpha 7.
In assay [14] the target is T5, Neuronal acetylcholine receptor; alpha3/beta4 (Homo sapiens, UniProt P30926+P32297). Briefly: Effective concentration against Nicotinic acetylcholine receptor alpha3-beta4. The assay is classed as protein-complex assay.
In assay [15] the target is T6, Neuronal acetylcholine receptor; alpha3/beta2 (Homo sapiens, UniProt P17787+P32297). Briefly: Effective concentration against Nicotinic acetylcholine receptor alpha3-beta2. The format is protein-complex assay.
Assay [16] concerns the target T5, Neuronal acetylcholine receptor; alpha3/beta4. Briefly: Maximal response against Nicotinic acetylcholine receptor alpha3-beta4. The format is protein-complex assay.
For assay [17], the target named is T3, Neuronal acetylcholine receptor; alpha2/beta4. Briefly: Maximal response against Nicotinic acetylcholine receptor alpha2-beta4 expressed in HEK293 cells. The assay is classed as cell-based.
Assay [18] can be described thus: Effective concentration against Nicotinic acetylcholine receptor alpha2-beta4 expressed in xenopus oocytes. The assay is classed as cell-based. As to conditions: oocyte.
Assay [19] in a line: Effective concentration against Nicotinic acetylcholine receptor alpha4-beta2 expressed in xenopus oocytes. The assay is classed as cell-based. The following applies: oocyte.
The nature of assay [20]: Effective concentration against Nicotinic acetylcholine receptor alpha3-beta4 expressed in xenopus oocytes. The format is cell-based. As to conditions: oocyte.
The target of assay [21] is Neuronal acetylcholine receptor subunit alpha-7 (Rattus norvegicus) (UniProt Q05941). Briefly: Maximal response against Nicotinic acetylcholine receptor alpha 7.
Assay [22] can be described thus: Effective concentration against Nicotinic acetylcholine receptor alpha4-beta4 expressed in xenopus oocytes. As to conditions: oocyte. The format is cell-based.
For assay [23], the target named is T6, Neuronal acetylcholine receptor; alpha3/beta2. Briefly: Maximal response against Nicotinic acetylcholine receptor alpha3-beta2 expressed in HEK293 cells. The assay is classed as cell-based.
Assay [24] has as its target T2, Neuronal acetylcholine receptor; alpha4/beta2. Briefly: Maximal response against Nicotinic acetylcholine receptor alpha4-beta2 expressed in HEK293 cells. The assay is classed as cell-based.
Assay [25] concerns the target T5, Neuronal acetylcholine receptor; alpha3/beta4. Briefly: Inhibitory concentration against Nicotinic acetylcholine receptor alpha3-beta4. The assay is classed as protein-complex assay.
The target in assay [26] is T2, Neuronal acetylcholine receptor; alpha4/beta2. Briefly: Inhibitory concentration against Nicotinic acetylcholine receptor alpha4-beta2. The format is protein-complex assay.
In assay [27] the target is T4, Neuronal acetylcholine receptor subunit alpha-7. Briefly: Inhibitory concentration against Nicotinic acetylcholine receptor alpha 7.
For assay [28], the target named is T1, Neuronal acetylcholine receptor; alpha4/beta4. Briefly: Ki or IC50 concentration against Nicotinic acetylcholine receptor alpha4-beta4 expressed in xenopus oocytes. The format is cell-based. The following applies: Oocyte.
A short description of assay [29]: Inhibitory concentration against Nicotinic acetylcholine receptor alpha3-beta4 expressed in xenopus oocytes. The following applies: oocyte. The assay is classed as cell-based.
Assay [30] in a line: Inhibitory concentration against Nicotinic acetylcholine receptor alpha2-beta4 expressed in xenopus oocytes. The assay is classed as cell-based. As to conditions: oocyte.
In assay [31] the target is T2, Neuronal acetylcholine receptor; alpha4/beta2. Briefly: Ki or IC50 concentration against Nicotinic acetylcholine receptor alpha4-beta2 expressed in xenopus oocytes. The format is cell-based. As to conditions: Oocyte.
The target in assay [32] is T4, Neuronal acetylcholine receptor subunit alpha-7. Briefly: Inhibitory concentration against Nicotinic acetylcholine receptor alpha-7 expressed in xenopus oocytes. The assay is classed as cell-based. The following applies: xenopus oocyte.
For assay [33], the target named is T1, Neuronal acetylcholine receptor; alpha4/beta4. Briefly: Inhibitory concentration against Nicotinic acetylcholine receptor alpha4-beta4; Range is 3-5 nM. The format is protein-complex assay.
The target in assay [34] is T4, Neuronal acetylcholine receptor subunit alpha-7. Briefly: Inhibitory concentration against Nicotinic acetylcholine receptor alpha-7 Range is 3-5 nM.
Assay [35] deals with T5, Neuronal acetylcholine receptor; alpha3/beta4. Briefly: Inhibitory concentration against Nicotinic acetylcholine receptor alpha3-beta4; Range is 3-5 nM. The assay is classed as protein-complex assay.
Assay [36] concerns the target T2, Neuronal acetylcholine receptor; alpha4/beta2. Briefly: Inhibitory concentration against Nicotinic acetylcholine receptor alpha4-beta2; Range is 3-5 nM. The assay is classed as protein-complex assay.
The target of assay [37] is T6, Neuronal acetylcholine receptor; alpha3/beta2. Briefly: Inhibitory concentration against Nicotinic acetylcholine receptor alpha3-beta2; Range is 3-5 nM. The assay is classed as protein-complex assay.

“And” between values parts separate entries of the source, which are not always exact repeats. Equal values may be shown once. Square brackets hold non-standard residues; d marks the D form. Peptide text beside a SMILES is read from it. Hyp = O=C(O)[C@@H]1C[C@@H](O)CN1 Where only a bound is given, the exact number is not on record here.

Neuronal acetylcholine receptor subunit alpha-7 (Rattus norvegicus), sequence (Q05941 whole entry): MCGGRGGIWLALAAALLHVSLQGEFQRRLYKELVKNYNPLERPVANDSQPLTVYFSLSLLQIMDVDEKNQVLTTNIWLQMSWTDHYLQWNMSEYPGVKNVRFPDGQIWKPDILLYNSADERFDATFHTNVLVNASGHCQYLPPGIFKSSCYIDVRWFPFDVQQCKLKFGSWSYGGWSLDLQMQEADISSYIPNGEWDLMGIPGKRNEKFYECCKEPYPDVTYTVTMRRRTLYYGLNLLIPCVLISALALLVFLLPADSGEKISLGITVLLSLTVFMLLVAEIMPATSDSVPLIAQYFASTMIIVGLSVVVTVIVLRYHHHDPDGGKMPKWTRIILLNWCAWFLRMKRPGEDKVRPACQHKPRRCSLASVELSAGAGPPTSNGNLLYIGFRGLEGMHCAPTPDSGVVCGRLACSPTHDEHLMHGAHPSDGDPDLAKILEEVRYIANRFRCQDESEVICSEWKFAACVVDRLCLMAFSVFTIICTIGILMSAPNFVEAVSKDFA
T5 sequence (P30926 whole entry): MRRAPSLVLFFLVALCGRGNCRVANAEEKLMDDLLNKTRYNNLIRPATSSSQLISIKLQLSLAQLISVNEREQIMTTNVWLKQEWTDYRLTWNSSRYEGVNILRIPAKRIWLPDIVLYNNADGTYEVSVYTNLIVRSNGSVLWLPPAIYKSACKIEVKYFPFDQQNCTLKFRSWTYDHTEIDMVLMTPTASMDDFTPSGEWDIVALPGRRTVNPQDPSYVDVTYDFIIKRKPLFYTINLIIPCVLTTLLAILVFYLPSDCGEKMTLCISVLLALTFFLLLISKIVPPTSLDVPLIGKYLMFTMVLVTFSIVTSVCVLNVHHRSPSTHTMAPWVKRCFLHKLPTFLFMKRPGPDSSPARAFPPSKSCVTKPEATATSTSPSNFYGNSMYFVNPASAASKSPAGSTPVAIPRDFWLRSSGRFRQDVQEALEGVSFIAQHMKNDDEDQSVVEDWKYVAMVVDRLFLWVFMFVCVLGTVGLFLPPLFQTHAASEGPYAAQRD
T5 sequence (P32297 whole entry): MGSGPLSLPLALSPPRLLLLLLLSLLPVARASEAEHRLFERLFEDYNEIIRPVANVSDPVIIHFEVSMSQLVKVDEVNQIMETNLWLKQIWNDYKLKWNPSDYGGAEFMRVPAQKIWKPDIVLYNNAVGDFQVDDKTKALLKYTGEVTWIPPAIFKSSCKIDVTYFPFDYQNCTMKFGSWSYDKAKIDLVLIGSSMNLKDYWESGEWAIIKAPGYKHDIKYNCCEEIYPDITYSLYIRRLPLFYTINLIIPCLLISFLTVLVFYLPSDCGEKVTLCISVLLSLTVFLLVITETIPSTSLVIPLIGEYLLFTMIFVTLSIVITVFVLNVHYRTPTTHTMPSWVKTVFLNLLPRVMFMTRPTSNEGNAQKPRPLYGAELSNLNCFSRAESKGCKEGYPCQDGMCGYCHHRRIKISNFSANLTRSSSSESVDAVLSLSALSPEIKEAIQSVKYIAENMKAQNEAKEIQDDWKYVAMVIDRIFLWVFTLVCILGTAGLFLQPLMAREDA
T4 sequence (P36544 whole entry): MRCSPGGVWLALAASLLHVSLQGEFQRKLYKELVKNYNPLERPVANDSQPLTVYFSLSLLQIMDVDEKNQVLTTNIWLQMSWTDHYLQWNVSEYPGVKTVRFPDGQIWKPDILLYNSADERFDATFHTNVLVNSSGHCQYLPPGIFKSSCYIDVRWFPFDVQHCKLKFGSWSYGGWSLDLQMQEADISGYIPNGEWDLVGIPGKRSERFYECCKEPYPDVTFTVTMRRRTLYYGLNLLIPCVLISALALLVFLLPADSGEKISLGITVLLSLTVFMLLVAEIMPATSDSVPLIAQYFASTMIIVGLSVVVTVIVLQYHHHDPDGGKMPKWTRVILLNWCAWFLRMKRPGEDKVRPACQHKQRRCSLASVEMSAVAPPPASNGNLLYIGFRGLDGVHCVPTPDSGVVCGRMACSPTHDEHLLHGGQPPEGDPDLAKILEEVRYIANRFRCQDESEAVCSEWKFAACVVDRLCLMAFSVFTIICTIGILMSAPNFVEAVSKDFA
T6 sequence (P17787 whole entry): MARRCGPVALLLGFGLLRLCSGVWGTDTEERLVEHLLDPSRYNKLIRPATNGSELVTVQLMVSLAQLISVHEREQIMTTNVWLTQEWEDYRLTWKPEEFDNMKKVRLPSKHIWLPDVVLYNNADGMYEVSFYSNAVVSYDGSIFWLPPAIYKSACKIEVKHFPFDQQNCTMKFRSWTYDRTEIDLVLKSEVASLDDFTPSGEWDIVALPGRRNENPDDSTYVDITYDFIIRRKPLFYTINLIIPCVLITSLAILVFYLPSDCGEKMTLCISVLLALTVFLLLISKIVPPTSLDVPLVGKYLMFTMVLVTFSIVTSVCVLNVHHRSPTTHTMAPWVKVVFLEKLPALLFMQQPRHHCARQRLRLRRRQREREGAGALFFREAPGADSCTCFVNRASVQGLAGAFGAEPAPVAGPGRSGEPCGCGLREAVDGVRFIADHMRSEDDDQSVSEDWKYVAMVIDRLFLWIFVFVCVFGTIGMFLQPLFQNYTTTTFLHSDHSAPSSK
T6 sequence (P32297 whole entry): as the sequence (P32297 whole entry) above
T2 sequence (P17787 whole entry): as the sequence (P17787 whole entry) above
T2 sequence (P43681 whole entry): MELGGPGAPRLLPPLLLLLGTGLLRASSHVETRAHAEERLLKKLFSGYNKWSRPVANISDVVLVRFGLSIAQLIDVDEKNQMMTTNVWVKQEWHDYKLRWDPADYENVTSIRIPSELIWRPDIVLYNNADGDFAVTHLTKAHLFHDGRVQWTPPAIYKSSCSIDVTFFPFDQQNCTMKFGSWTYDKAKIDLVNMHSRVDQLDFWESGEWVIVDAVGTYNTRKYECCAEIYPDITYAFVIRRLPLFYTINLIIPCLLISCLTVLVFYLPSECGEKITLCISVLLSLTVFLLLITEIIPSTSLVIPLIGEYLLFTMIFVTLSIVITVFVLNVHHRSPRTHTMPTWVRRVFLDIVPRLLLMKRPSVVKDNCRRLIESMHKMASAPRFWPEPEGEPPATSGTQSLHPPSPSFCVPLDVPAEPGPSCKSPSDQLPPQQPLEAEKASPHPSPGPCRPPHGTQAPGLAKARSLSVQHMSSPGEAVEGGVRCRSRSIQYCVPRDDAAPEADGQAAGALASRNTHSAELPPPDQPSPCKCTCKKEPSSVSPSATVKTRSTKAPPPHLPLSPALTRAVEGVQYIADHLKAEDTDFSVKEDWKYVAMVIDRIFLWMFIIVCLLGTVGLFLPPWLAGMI
T1 sequence (P30926 whole entry): as the sequence (P30926 whole entry) above
T1 sequence (P43681 whole entry): as the sequence (P43681 whole entry) above
T3 sequence (P30926 whole entry): as the sequence (P30926 whole entry) above
T3 sequence (Q15822 whole entry): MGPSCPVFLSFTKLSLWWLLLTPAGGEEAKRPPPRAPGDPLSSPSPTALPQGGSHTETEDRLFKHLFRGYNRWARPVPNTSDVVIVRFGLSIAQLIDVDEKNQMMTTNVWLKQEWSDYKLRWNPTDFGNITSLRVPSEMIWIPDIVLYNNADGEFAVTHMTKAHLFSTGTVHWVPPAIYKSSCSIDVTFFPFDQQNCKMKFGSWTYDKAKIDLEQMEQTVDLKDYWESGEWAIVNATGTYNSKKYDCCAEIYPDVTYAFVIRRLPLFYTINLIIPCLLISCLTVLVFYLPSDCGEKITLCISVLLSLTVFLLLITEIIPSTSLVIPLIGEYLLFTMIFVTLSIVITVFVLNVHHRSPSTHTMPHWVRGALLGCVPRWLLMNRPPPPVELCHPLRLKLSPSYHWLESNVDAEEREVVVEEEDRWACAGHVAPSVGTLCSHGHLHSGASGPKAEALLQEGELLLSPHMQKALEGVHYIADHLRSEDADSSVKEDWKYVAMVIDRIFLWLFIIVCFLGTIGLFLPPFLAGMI

In the case of `CC[C@H](C)[C@H](NC(=O)[C@H](CCC(N)=O)NC(=O)[C@@H]1CCCN1C(=O)[C@H](CC(N)=O)NC(=O)[C@H](Cc1c[nH]cn1)NC(=O)[C@@H](NC(=O)[C@@H](NC(=O)[C@H](CS)NC(=O)[C@@H](NC(=O)[C@@H]1CCCN1C(=O)[C@H](CC(N)=O)NC(=O)[C@H](CO)NC(=O)[C@H](CS)NC(=O)[C@H](CS)NC(=O)[C@@H]1CCCN1C(=O)[C@@H](N)CC(=O)O)C(C)C)[C@@H](C)O)C(C)C)C(=O)N[C@@H](CS)C(N)=O` (H-DPCCSNPVCTVHNPQIC-NH2), the IC50 in assay [1] and in assay [2] was 0.001 µM each time.
As to `Cc1cc([C@@H]2CCN2C)on1`, the Rmax in [3] worked out at 55%; in [4], 50%; in assay [5], 119%; in assay [6] it was 50%.
As to `C#Cc1cncc([C@@H]2CCCN2C)c1` [ALTINICLINE], the Rmax was 26% in assay [7], 49% in assay [9], 49% in assay [12] and 52% in [16]. The EC50 in assay [8] is 2 µM; in assay [10] it was 0.32 µM; in [11], 3.2 µM; in assay [13], > 10 µM; in assay [14] it was 10 µM; in [15], 3.2 µM.
Consider `CN1CCC[C@H]1c1cccnc1` [NICOTINE], for which the Rmax in assay [7] was 100% and 85% and 108%; in assay [17], 100%; in assay [9], 73%; in assay [21], 74% and 97%; in assay [23] it was 100%; in assay [12], 114%. The compound also showed an Rmax in assay [24] of 3.5%. Also, the concentration giving a half-maximal response (EC50) in assay [18] is 21 µM; in [19] it was 5.5 µM; in assay [20], 80 µM; in assay [22], 5 µM.
In the case of `CO[C@@H]1CC=C2CCN3CCC4=C(CC(=O)OC4)[C@@]23C1`, the IC50 in [25] was 43 µM and 240 µM; in [27], 98 µM; in assay [29] it was 14 µM; in assay [30] it was 3.6 µM. For the same compound, the Concentration worked out at 2.7 µM in [26], 0.01 µM in assay [28], 0.11 µM in assay [31] and 20 µM in assay [32].
Consider `CC[C@H](C)[C@H](N)C(=O)N[C@@H](CCCN=C(N)N)C(=O)N[C@@H](CC(=O)O)C(=O)N[C@@H](CCC(=O)O)C(=O)N[C@@H](CS)C(=O)N[C@@H](CS)C(=O)N[C@@H](CO)C(=O)N[C@@H](CC(N)=O)C(=O)N1CCC[C@H]1C(=O)N[C@@H](C)C(=O)N[C@@H](CS)C(=O)N[C@@H](CCCN=C(N)N)C(=O)N[C@H](C(=O)N[C@@H](CC(N)=O)C(=O)N[C@@H](CC(N)=O)C(=O)N1C[C@H](O)C[C@H]1C(=O)N[C@@H](Cc1c[nH]cn1)C(=O)N[C@H](C(=O)N[C@@H](CS)C(N)=O)C(C)C)C(C)C` (H-IRDECCSNPACRVNN[Hyp]HVC-NH2), for which the IC50 in assay [33], in assay [34], in assay [35], in [36] and in assay [37] was 0.005 µM throughout.

(Values after ChEMBL document CHEMBL1145159 (J Med Chem, 2005).)
